pIC50: −log10 of the molar value.
Columns and labels:
Assay type in all cases: biochemical
CDK9/Cyclin T1 = biological target: T1, CDK9/Cyclin T1 (Homo sapiens, UniProt P50750); assay: Kinase assay using CDK9/Cyclin T1; conditions: read-out: CDK9 (activity range)
T1 construct: made in house; host or cells: HEK293 cells, recombinant adenovirus
Text: Cloning of CDK9 and Cyclin T1:
Both cDNA fragments were cloned by PCR into pDONR201 vectors using the gateway recombination system (Invitrogen) according to the manufacturer's recommendations. The fragments were subcloned into a gateway-adapted shuttle vector (pPM7) for production of recombinant adenovirus. All plasmids were verified by restriction digests and sequencing analysis.
Expression and Purification of CDK9/Cyclin T1 Proteins:
Expression and purification was in principle performed as described by Cotten et al. (M. Cotten et al., Nucleic acids research, 2003, 31(28), 128).
Kinase Assay Using CDK9/Cyclin T1:
Kinase assays were performed in principle as described by Cotten et al. (M. Cotten et al., Nucleic acids research, 2003, 31(28), 128).

CDK2/CyclinA = biological target: T2, CDK2/CyclinA (Homo sapiens, UniProt P24941); assay: Kinase assay determining CDK2/CyclinA activity; conditions: read-out: CDK2 (activity range)
T2 construct: purchased Proqinase
Description: Kinase Assays Determining CDK2/CyclinA and CDK5/p35 Activity:
Kinase assays were performed as described by the manufacturers recommendations (Proqinase for CDK2/CyclinA and Upsate for CDK5/p35).

CDK4 = CDK4 (Homo sapiens, UniProt P11802); assay: Kinase assay, CDK4 activity range (Table 2)
Chain of CDK4 (P11802 whole entry, species assumed): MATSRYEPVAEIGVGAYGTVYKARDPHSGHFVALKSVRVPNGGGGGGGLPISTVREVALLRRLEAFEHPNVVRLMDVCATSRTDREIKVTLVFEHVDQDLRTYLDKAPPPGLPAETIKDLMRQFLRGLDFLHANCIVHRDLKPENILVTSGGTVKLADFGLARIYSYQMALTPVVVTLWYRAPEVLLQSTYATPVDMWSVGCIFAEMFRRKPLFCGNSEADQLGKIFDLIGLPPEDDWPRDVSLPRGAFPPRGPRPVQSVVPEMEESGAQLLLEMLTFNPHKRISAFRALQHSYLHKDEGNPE
Chain of CDK4 (P24385 whole entry partner, species assumed): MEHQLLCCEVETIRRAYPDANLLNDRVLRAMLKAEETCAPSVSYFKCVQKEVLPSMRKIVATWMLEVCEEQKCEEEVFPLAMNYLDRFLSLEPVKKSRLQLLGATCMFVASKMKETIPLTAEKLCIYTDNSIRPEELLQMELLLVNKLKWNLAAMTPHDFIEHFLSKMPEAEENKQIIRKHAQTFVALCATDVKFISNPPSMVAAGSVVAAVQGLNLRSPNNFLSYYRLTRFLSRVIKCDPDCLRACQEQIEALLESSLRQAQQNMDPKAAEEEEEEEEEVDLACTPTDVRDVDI

T1 sequence (P50750 whole entry): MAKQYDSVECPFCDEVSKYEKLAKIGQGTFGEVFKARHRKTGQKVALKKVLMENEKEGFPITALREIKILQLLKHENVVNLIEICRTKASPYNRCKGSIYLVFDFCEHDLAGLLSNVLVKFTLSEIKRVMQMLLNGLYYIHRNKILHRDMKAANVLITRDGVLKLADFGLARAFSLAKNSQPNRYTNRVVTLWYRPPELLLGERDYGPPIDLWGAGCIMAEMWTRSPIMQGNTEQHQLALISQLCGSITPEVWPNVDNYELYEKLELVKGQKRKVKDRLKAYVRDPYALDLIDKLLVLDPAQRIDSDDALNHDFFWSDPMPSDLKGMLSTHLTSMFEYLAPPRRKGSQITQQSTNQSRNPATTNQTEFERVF
T1 sequence (O60563 whole entry partner): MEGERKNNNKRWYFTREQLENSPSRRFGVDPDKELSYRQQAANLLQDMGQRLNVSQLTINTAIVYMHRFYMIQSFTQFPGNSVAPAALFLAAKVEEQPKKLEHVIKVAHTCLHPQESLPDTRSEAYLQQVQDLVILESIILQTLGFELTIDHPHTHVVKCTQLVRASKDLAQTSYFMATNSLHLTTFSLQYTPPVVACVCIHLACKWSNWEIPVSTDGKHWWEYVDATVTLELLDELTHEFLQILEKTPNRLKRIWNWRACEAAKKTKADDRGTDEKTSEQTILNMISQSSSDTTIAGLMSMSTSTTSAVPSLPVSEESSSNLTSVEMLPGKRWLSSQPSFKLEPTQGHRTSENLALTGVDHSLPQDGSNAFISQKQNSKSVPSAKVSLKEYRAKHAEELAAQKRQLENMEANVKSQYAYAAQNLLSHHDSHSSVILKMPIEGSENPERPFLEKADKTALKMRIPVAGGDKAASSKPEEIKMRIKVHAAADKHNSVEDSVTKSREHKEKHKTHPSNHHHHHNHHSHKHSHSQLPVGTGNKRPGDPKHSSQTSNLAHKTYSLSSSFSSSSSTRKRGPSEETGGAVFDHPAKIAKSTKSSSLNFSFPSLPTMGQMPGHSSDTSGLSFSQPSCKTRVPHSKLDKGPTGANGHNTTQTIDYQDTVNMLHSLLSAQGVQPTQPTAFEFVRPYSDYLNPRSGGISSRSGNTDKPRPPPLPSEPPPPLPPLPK

SMILES | pIC50 (CDK9/Cyclin T1) | pIC50 (CDK2/CyclinA) | pIC50 (CDK4)
CC(C)Oc1ccccc1-c1cc(Nc2ccc(NC(=O)[C@@H]3CCCCN3)cc2)ncn1 [(188)] | 6.00 to 9.00 | 5.00 to 6.00 | 6.00 to 9.00
COc1ccccc1-c1cc(Nc2ccc(NC(=O)C3(N)CCCCC3)cc2)ncn1 [(66)] | 6.00 to 9.00 | 5.00 to 6.00 | 5.00 to 6.00
Cc1ccc(Nc2cc(-c3cccc(O)c3)ncn2)cc1NS(C)(=O)=O [(105)] | 6.00 to 9.00 | 6.00 to 9.00 | 3.60 to 5.00
CC(=O)Nc1cccc(-c2cc(Nc3ccc(C)c(NS(C)(=O)=O)c3)ncn2)c1 [(104)] | 6.00 to 9.00 | 5.00 to 6.00 | 3.60 to 5.00
COc1ccccc1-c1cc(Nc2ccc(NC(=O)C3(N)CCCC3)cc2)ncn1 [(68)] | 6.00 to 9.00 | 5.00 to 6.00 | 5.00 to 6.00
CNC(C)(C)C(=O)Nc1ccc(Nc2cc(-c3ccccc3OC)ncn2)cc1 [(118)] | 6.00 to 9.00 | 5.00 to 6.00 | 6.00 to 9.00
O=Cc1cccc(-c2cc(Nc3ccc(NC(=O)[C@@H]4CCCCN4)cc3)ncn2)c1 [(168)] | 5.00 to 6.00 | – | 5.00 to 6.00
CC[C@H](C)[C@H](N)C(=O)Nc1ccc(Nc2cc(-c3ccccc3OC)ncn2)cc1 [(140)] | 6.00 to 9.00 | 5.00 to 6.00 | 5.00 to 6.00
COc1ccccc1-c1cc(Nc2ccc(N)cc2)ncn1 [(22)] | 6.00 to 9.00 | 6.00 to 9.00 | 5.00 to 6.00
CN[C@H](C(=O)Nc1ccc(Nc2cc(-c3ccccc3OC)ncn2)cc1)c1ccccc1 [(82)] | 6.00 to 9.00 | 5.00 to 6.00 | 5.00 to 6.00
NCCCOc1ccccc1-c1cc(Nc2ccc(NC(=O)c3ccc(N)cc3)cc2)ncn1 [(103)] | 6.00 to 9.00 | 5.00 to 6.00 | 3.60 to 5.00
NC(=O)c1ccc(Nc2cc(-c3ccccc3OCc3ccccc3)ncn2)cc1 [(95)] | 6.00 to 9.00 | 6.00 to 9.00 | 5.00 to 6.00
COc1ccccc1-c1cc(Nc2ccc(NC(=O)[C@@H]3CCCCN3)cc2)ncn1 [(30)] | 6.00 to 9.00 | 5.00 to 6.00 | 6.00 to 9.00
COc1ccccc1-c1cc(Nc2cccc(N)c2)ncn1 [(124)] | 6.00 to 9.00 | 6.00 to 9.00 | 5.00 to 6.00
COc1ccccc1-c1cc(Nc2ccc(N3CCCC3=O)cc2)ncn1 [(9)] | 6.00 to 9.00 | 6.00 to 9.00 | 6.00 to 9.00
COc1ccccc1-c1cc(Nc2ccc(NC(=O)CN(C)C)cc2)ncn1 [(46)] | 6.00 to 9.00 | 5.00 to 6.00 | 5.00 to 6.00
COc1ccccc1-c1cc(Nc2ccc(NC(=O)[C@H]3CCCCN3)cc2)ncn1 [(69)] | 6.00 to 9.00 | 5.00 to 6.00 | 6.00 to 9.00
COc1ccccc1-c1cc(Nc2ccc(NC(=O)C3CCN(C)CC3)cc2)ncn1 [(89)] | 6.00 to 9.00 | 5.00 to 6.00 | 5.00 to 6.00
CCN(CC)CCC(=O)Nc1ccc(Nc2cc(-c3ccccc3OC)ncn2)cc1 [(64)] | 6.00 to 9.00 | 5.00 to 6.00 | 5.00 to 6.00
COc1ccccc1-c1cc(Nc2ccc(NC(=O)C3CCCN(C)C3)cc2)ncn1 (stereo not drawn) [(87)] | 6.00 to 9.00 | 5.00 to 6.00 | 5.00 to 6.00
COc1ccccc1-c1cc(Nc2ccc(NC(C)=O)cc2)ncn1 [(10)] | 6.00 to 9.00 | 6.00 to 9.00 | 5.00 to 6.00
Cc1ccc(Nc2cc(-c3cccc(C(F)(F)F)c3)ncn2)cc1NS(C)(=O)=O [(107)] | 3.60 to 5.00 | 3.60 to 5.00 | 3.60 to 5.00

SMILES | pIC50 (CDK9/Cyclin T1) | pIC50 (CDK2/CyclinA) | pIC50 (CDK4)
COc1ccccc1-c1cc(Nc2ccc(NS(C)(=O)=O)cc2)ncn1 [(33)] | 6.00 to 9.00 | 6.00 to 9.00 | 5.00 to 6.00
O=C(Nc1ccc(Nc2cc(-c3ccccc3OC(F)(F)F)ncn2)cc1)[C@@H]1CCCCN1 [(190)] | 5.00 to 6.00 | – | 5.00 to 6.00
CSc1ccccc1-c1cc(Nc2ccc(NC(=O)[C@@H]3CCCCN3)cc2)ncn1 [(189)] | 6.00 to 9.00 | 5.00 to 6.00 | 6.00 to 9.00
COc1ccccc1-c1cc(Nc2ccc(NC(=O)CCN)cc2)ncn1 [(102)] | 6.00 to 9.00 | 5.00 to 6.00 | 6.00 to 9.00
COc1ccccc1-c1cc(Nc2ccc(C(=O)N[C@@H]3CCCC[C@H]3N)cc2)ncn1 (racemic) [(83)] | 6.00 to 9.00 | 5.00 to 6.00 | 5.00 to 6.00
COc1ccc(-c2cc(Nc3ccc(C(=O)N[C@@H]4CCCC[C@H]4N)cc3)ncn2)cc1 (racemic) [(161)] | 6.00 to 9.00 | 5.00 to 6.00 | –
COc1ccccc1-c1cc(Nc2ccc(NC(=O)C(c3ccccc3)C(C)C)cc2)ncn1 (stereo not drawn) [(37)] | 5.00 to 6.00 | 3.60 to 5.00 | –
COc1cccc(-c2cc(Nc3ccc(NS(=O)(=O)c4ccc(C)cc4)cc3)ncn2)c1 [(2)] | 3.60 to 5.00 | 3.60 to 5.00 | –
COc1ccccc1-c1cc(Nc2ccc(NC(=O)C34CC5CC(CC(C5)C3)C4)cc2)ncn1 [(61)] | 5.00 to 6.00 | 3.60 to 5.00 | –
COc1ccccc1-c1cc(Nc2ccc(NC(=O)c3ccc(N)cc3)cc2)nc(N)n1 [(97)] | 5.00 to 6.00 | 3.60 to 5.00 | –
COc1ccc(Cl)cc1-c1cc(Nc2ccc(NC(=O)c3ccc(N)cc3)cc2)ncn1 [(39)] | 5.00 to 6.00 | 3.60 to 5.00 | –
COc1cccc(OC)c1-c1cc(Nc2ccc(NC(=O)c3ccc(N)cc3)cc2)ncn1 [(51)] | 5.00 to 6.00 | 3.60 to 5.00 | –
COc1ncccc1-c1cc(Nc2ccc(C)c(NS(C)(=O)=O)c2)ncn1 [(176)] | 6.00 to 9.00 | 5.00 to 6.00 | –
COC(=O)/C=C/c1cccc(-c2cc(Nc3ccc(C)c(NS(C)(=O)=O)c3)ncn2)c1 [(182)] | 5.00 to 6.00 | 5.00 to 6.00 | –
COc1ccccc1-c1cc(Nc2ccc(-c3nc4ccccc4[nH]3)cc2)ncn1 [(63)] | 6.00 to 9.00 | 6.00 to 9.00 | –
CC(C)(C)C(=O)Nc1ccc(Nc2cc(-c3ccccc3F)ncn2)cc1 [(127)] | 3.60 to 5.00 | 3.60 to 5.00 | –
Cc1ccc(S(=O)(=O)Nc2ccc(Nc3cc(-c4ccc(CCC(=O)O)cc4)ncn3)cc2)cc1 [(17)] | 3.60 to 5.00 | 3.60 to 5.00 | –
Cc1ccc(Nc2cc(-c3cccc(N)c3)ncn2)cc1NS(=O)(=O)c1ccccc1 [(109)] | 6.00 to 9.00 | 5.00 to 6.00 | –
COc1ccccc1-c1cc(Nc2ccc(NS(=O)(=O)c3ccc(C)cc3)cc2)ncn1 [(5)] | 6.00 to 9.00 | 6.00 to 9.00 | –
Nc1ccc(C(=O)Nc2ccc(Nc3cc(-c4cccs4)ncn3)cc2)cc1 [(77)] | 5.00 to 6.00 | 3.60 to 5.00 | –
COc1ccccc1-c1cc(Nc2ccc(NC(=O)Cc3ccccc3)cc2)ncn1 [(71)] | 6.00 to 9.00 | 5.00 to 6.00 | –
COc1ccccc1-c1cc(Nc2ccc(NS(=O)(=O)C(C)C)cc2)ncn1 [(153)] | 6.00 to 9.00 | 6.00 to 9.00 | –

SMILES | pIC50 (CDK9/Cyclin T1) | pIC50 (CDK2/CyclinA) | pIC50 (CDK4)
Nc1ccc(C(=O)Nc2ccc(Nc3cc(-c4ccc(O)cc4)ncn3)cc2)cc1 [(16)] | 5.00 to 6.00 | 5.00 to 6.00 | –
COc1ccccc1-c1cc(Nc2ccc(NC(=O)C(C)(C)C)cc2)ncn1 [(19)] | 6.00 to 9.00 | 5.00 to 6.00 | –
COc1ccccc1-c1cc(Nc2ccc(NC(=O)[C@@H]3CCCCN3C(=O)OC(C)(C)C)cc2)ncn1 [(29)] | 6.00 to 9.00 | 5.00 to 6.00 | –
COc1ccccc1-c1cc(Nc2ccc(C)c(NS(C)(=O)=O)c2)ncn1 [(162)] | 6.00 to 9.00 | 6.00 to 9.00 | –
CC(C)(C)C(=O)Nc1ccc(Nc2cc(NCCN)ncn2)cc1 [(79)] | 3.60 to 5.00 | 3.60 to 5.00 | –
COc1ccccc1-c1cc(Nc2ccc(C(=O)NC3CCCCC3)cc2)ncn1 [(44)] | 6.00 to 9.00 | 5.00 to 6.00 | –
CCc1ccccc1-c1cc(Nc2ccc(NC(=O)C(C)(C)C)cc2)ncn1 [(131)] | 3.60 to 5.00 | 5.00 to 6.00 | –
Cc1ccc(Nc2cc(-c3cccc(C=O)c3)ncn2)cc1NS(C)(=O)=O [(165)] | 5.00 to 6.00 | 5.00 to 6.00 | –
CS(=O)(=O)Nc1cccc(-c2cc(Nc3ccc(C(=O)N[C@@H]4CCCC[C@H]4N)cc3)ncn2)c1 (racemic) [(195)] | 6.00 to 9.00 | 5.00 to 6.00 | –
COc1ccccc1-c1cc(Nc2ccc(NC(=O)c3nc4ccccc4s3)cc2)ncn1 [(84)] | 5.00 to 6.00 | 3.60 to 5.00 | –
Cc1ccc(S(=O)(=O)Nc2ccc(Nc3cc(Cl)ncn3)cc2)cc1 [(24)] | 3.60 to 5.00 | 5.00 to 6.00 | –
COc1cccc(-c2cc(Nc3ccc(C)c(NS(C)(=O)=O)c3)ncn2)c1 [(100)] | 5.00 to 6.00 | 5.00 to 6.00 | –
Nc1ccc(C(=O)Nc2ccc(Nc3cc(-c4ccccc4)ncn3)cc2)cc1 [(76)] | 5.00 to 6.00 | 3.60 to 5.00 | –
COc1ccccc1-c1cc(Nc2ccc(C(=O)N3CCOCC3)cc2)ncn1 [(147)] | 5.00 to 6.00 | – | 5.00 to 6.00
COc1ccccc1-c1cc(Nc2cccc(NC(=O)C(C)(C)C)c2)ncn1 [(122)] | 5.00 to 6.00 | 5.00 to 6.00 | –
COc1ccccc1-c1cc(Nc2ccc(NC(=O)c3ccc4ccccc4n3)cc2)ncn1 [(98)] | 6.00 to 9.00 | 3.60 to 5.00 | –
Cc1ccc(Nc2cc(-c3cccc(N)c3)ncn2)cc1NS(=O)(=O)c1cccc2cccnc12 [(142)] | 6.00 to 9.00 | 3.60 to 5.00 | –
Cc1ccc(Nc2cc(-c3ccccc3O)ncn2)cc1NS(C)(=O)=O [(181)] | 6.00 to 9.00 | 6.00 to 9.00 | –
Nc1ccc(C(=O)Nc2ccc(Nc3cc(-c4ccncc4)ncn3)cc2)cc1 [(67)] | 3.60 to 5.00 | 3.60 to 5.00 | –
COc1ccccc1-c1cc(Nc2ccc(NS(=O)(=O)c3ccc(C(C)C)cc3)cc2)ncn1 [(23)] | 6.00 to 9.00 | 5.00 to 6.00 | –
